Results from US6737383B1, “Herbicidal oxadiazolidines” (priority 1999, dated 2004).

Legend:
morningglory = assay: Test B pre/postemergence morningglory; format: in vivo, Ipomoea hederacea
Outline: (§1)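 Herbicidal effect was estimated by eye on a ten-point control scale after plants spent twelve to sixteen days in a greenhouse following soil or foliar treatment. Foliar sprays targeted plants at one to four leaves; all doses were formulated in a non-phytotoxic solvent with surfactant.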

smallflower flatsedge = assay: Test B flood test smallflower flatsedge; format: in vivo, Cyperus difformis
Outline: (§2)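 Plants were grown to the 2-leaf stage before treatment with test chemical, then held in a greenhouse for twelve to sixteen days. Injury was visually rated against untreated controls on a 0–10 scale, where 0 is no effect and 10 is complete control.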

pigweed = assay: Test B pre/postemergence pigweed; format: in vivo, Amaranthus retroflexus
Outline: as §1

purple nutsedge = assay: Test B pre/postemergence purple nutsedge; format: in vivo, Cyperus rotundus
Outline: as §1

blackgrass = assay: Test B pre/postemergence blackgrass; format: in vivo, Alopecurus myosuroides
Outline: as §1

sugar beet = assay: Test B pre/postemergence sugar beet; format: in vivo, Beta vulgaris
Outline: as §1

surinam grass = assay: Test B pre/postemergence surinam grass; format: in vivo, Brachiaria decumbens
Outline: as §1

cocklebur = assay: Test B pre/postemergence cocklebur; format: in vivo, Xanthium strumarium
Outline: as §1

corn = assay: Test B pre/postemergence corn; format: in vivo, Zea mays
Outline: as §1

duck salad = assay: Test B flood test duck salad; format: in vivo, Heteranthera limosa
Outline: as §2

giant foxtail = assay: Test B pre/postemergence giant foxtail; format: in vivo, Setaria faberii
Outline: as §1

bedstraw = assay: Test B pre/postemergence bedstraw; format: in vivo, Galium aparine; conditions: Preemergence
Outline: as §1

bamyardgrass = assay: Test B flood test barnyardgrass; format: in vivo, Echinochloa crus-galli
Outline: as §2

soybean = assay: Test B pre/postemergence soybean; format: in vivo, Glycine max
Outline: as §1

rape = assay: Test B pre/postemergence rape; format: in vivo, Brassica napus
Outline: as §1

velvetleaf = assay: Test B pre/postemergence velvetleaf; format: in vivo, Abutilon theophrasti
Outline: as §1

wheat = assay: Test B pre/postemergence wheat; format: in vivo, Triticum aestivum
Outline: as §1

rice = assay: Test B flood test rice; format: in vivo, Oryza sativa
Outline: as §2

crabgrass = assay: Test B pre/postemergence crabgrass; format: in vivo, Digitaria sanguinalis
Outline: as §1

wild oat = assay: Test B pre/postemergence wild oat; format: in vivo, Avena fatua
Outline: as §1

[1] = Postemergence, Rate 62 g/ha, scale of 0 to 10, 0 is no effect, 10 is complete control
[2] = Postemergence, Rate 125 g/ha, scale of 0 to 10 where 0 is no effect and 10 is complete control
[3] = Postemergence, Rate 250 g/ha, scale of 0 to 10, 0 is no effect, 10 is complete control
[4] = Postemergence, Rate 500 g/ha, scale of 0 to 10 where 0 is no effect and 10 is complete control
[5] = Preemergence, Rate 62 g/ha, scale 0 to 10 (0 no effect, 10 complete control)
[6] = Preemergence, Rate 125 g/ha, scale of 0 to 10 where 0 is no effect and 10 is complete control
[7] = Preemergence, Rate 500 g/ha, scale of 0 to 10 where 0 is no effect and 10 is complete control
[8] = Rate 62 g/ha, flood test species, Pre-emergence, visual evaluation after twelve to sixteen days
[9] = Rate 125 g/ha, under heading Pre-emergence, flood test species, visual evaluation after twelve to sixteen days
[10] = Rate 250 g/ha, Pre-emergence (flood test species), scale 0 to 10, 0 is no effect, 10 is complete control
[11] = Rate 500 g/ha, Pre-emergence section of Table B, 0 to 10 scale (0 no effect, 10 complete control)

Compound: CC(C)N(C(=O)n1oc(=O)n(CC[N+](=O)[O-])c1=O)c1ccc(F)cc1F [Compound 591]
- Morningglory plant response rating (morningglory; [1]): 0
- Plant response rating, Morningglory (morningglory; [2]): 0
- Morningglory plant response rating (morningglory; [3]): 2
- Plant response rating, Morningglory (morningglory; [4]): 3
- Morningglory plant response rating (morningglory; [5]): 0
- Morningglory plant response rating (morningglory; [6]): 0
- Plant response rating, Morningglory (morningglory; [7]): 0
- Plant response rating, S. Flatsedge (0 to 10 scale, 0 is no effect, 10 is complete control) (smallflower flatsedge; [8]): 0
- S. Flatsedge plant response rating (0 to 10 scale, 0 is no effect, 10 is complete control) (smallflower flatsedge; [9]): 0
- S. Flatsedge plant response rating (smallflower flatsedge; [10]): 0
- S. Flatsedge plant response rating (smallflower flatsedge; [11]): 0
- Plant response rating, Redroot pigweed (pigweed; [2]): 0
- Redroot pigweed plant response rating (pigweed; [3]): 0
- Plant response rating, Redroot pigweed (pigweed; [4]): 0
- Redroot pigweed plant response rating (pigweed; [5]): 0
- Redroot pigweed plant response rating (pigweed; [6]): 0
- Plant response rating, Redroot pigweed (pigweed; [7]): 0
- Nutsedge plant response rating (purple nutsedge; [1]): 0
- Plant response rating, Nutsedge (purple nutsedge; [2]): 0
- Nutsedge plant response rating (purple nutsedge; [3]): 0
- Plant response rating, Nutsedge (purple nutsedge; [4]): 0
- Nutsedge plant response rating (purple nutsedge; [5]): 0
- Nutsedge plant response rating (purple nutsedge; [6]): 0
- Plant response rating, Nutsedge (purple nutsedge; [7]): 0
- Blackgrass plant response rating (blackgrass; [1]): 0
- Plant response rating, Blackgrass (blackgrass; [2]): 0
- Blackgrass plant response rating (blackgrass; [3]): 0
- Plant response rating, Blackgrass (blackgrass; [4]): 0
- Blackgrass plant response rating (blackgrass; [5]): 0
- Blackgrass plant response rating (blackgrass; [6]): 0
- Blackgrass plant response rating (0 to 10 scale) (blackgrass; Preemergence, Rate 250 g/ha): 0
- Blackgrass plant response rating (blackgrass; [7]): 0
- Plant response rating, Sugarbeets (sugar beet; [2]): 0
- Sugarbeets plant response rating (sugar beet; [3]): 0
- Plant response rating, Sugarbeets (sugar beet; [4]): 0
- Sugarbeets plant response rating (sugar beet; [5]): 0
- Sugarbeets plant response rating (sugar beet; [6]): 0
- Plant response rating, Sugarbeets (sugar beet; [7]): 0
- B. signalgrass plant response rating (surinam grass; [1]): 0
- Plant response rating, B. signalgrass (surinam grass; [2]): 0
- B. signalgrass plant response rating (surinam grass; [3]): 0
- Plant response rating, B. signalgrass (surinam grass; [4]): 0
- B. signalgrass plant response rating (surinam grass; [5]): 0
- B. signalgrass plant response rating (surinam grass; [6]): 0
- B. signalgrass plant response rating (0 to 10 scale, 0 is no effect, 10 is complete control) (surinam grass; Preemergence, Rate 250 g/ha): 0
- B. signalgrass plant response rating (surinam grass; [7]): 0
- Cocklebur plant response rating (cocklebur; [1]): 0
- Plant response rating, Cocklebur (cocklebur; [2]): 0
- Cocklebur plant response rating (cocklebur; [3]): 0
- Plant response rating, Cocklebur (cocklebur; [4]): 0
- Cocklebur plant response rating (cocklebur; [5]): 0
- Cocklebur plant response rating (cocklebur; [6]): 0
- Cocklebur plant response rating (0 to 10 scale) (cocklebur; Preemergence, Rate 250 g/ha): 0
- Plant response rating, Cocklebur (cocklebur; [7]): 0
- Corn plant response rating (corn; [1]): 0
- Plant response rating, Corn (corn; [2]): 0
- Corn plant response rating (corn; [3]): 0
- Plant response rating, Corn (corn; [4]): 0
- Corn plant response rating (corn; [5]): 0
- Corn plant response rating (corn; [6]): 0
- Corn plant response rating (0 to 10 scale) (corn; Preemergence, Rate 250 g/ha): 0
- Plant response rating, Corn (corn; [7]): 0
- Plant response rating, Ducksalad (0 to 10 scale, 0 is no effect, 10 is complete control) (duck salad; [8]): 0
- Ducksalad plant response rating (0 to 10 scale, 0 is no effect, 10 is complete control) (duck salad; [9]): 0
- Ducksalad plant response rating (duck salad; [10]): 0
- Ducksalad plant response rating (duck salad; [11]): 0
- Giant foxtail plant response rating (giant foxtail; [1]): 0
- Plant response rating, Giant foxtail (giant foxtail; [2]): 0
- Giant foxtail plant response rating (giant foxtail; [3]): 0
- Plant response rating, Giant foxtail (giant foxtail; [4]): 0
- Giant foxtail plant response rating (giant foxtail; [5]): 0
- Giant foxtail plant response rating (giant foxtail; [6]): 0
- Plant response rating, Giant foxtail (giant foxtail; [7]): 0
- Bedstraw plant response rating (bedstraw; Rate 62 g/ha, scale 0 to 10 (0 no effect, 10 complete control)): 0
- Bedstraw plant response rating (bedstraw; Rate 125 g/ha, scale of 0 to 10 where 0 is no effect and 10 is complete control): 0
- Plant response rating, Barnyardgrass (0 to 10 scale, 0 is no effect, 10 is complete control) (bamyardgrass; [8]): 0
- Barnyardgrass plant response rating (0 to 10 scale, 0 is no effect, 10 is complete control) (bamyardgrass; [9]): 0
- Barnyardgrass plant response rating (bamyardgrass; [10]): 0
- Barnyardgrass plant response rating (bamyardgrass; [11]): 0
- Plant response rating, Soybean (soybean; [2]): 1
- Soybean plant response rating (soybean; [3]): 2
- Plant response rating, Soybean (soybean; [4]): 2
- Soybean plant response rating (soybean; [5]): 0
- Soybean plant response rating (soybean; [6]): 0
- Plant response rating, Soybean (soybean; [7]): 0
- Rape plant response rating (rape; [1]): 0
- Plant response rating, Rape (rape; [2]): 0
- Rape plant response rating (rape; [3]): 0
- Plant response rating, Rape (rape; [4]): 0
- Rape plant response rating (rape; [5]): 0
- Rape plant response rating (rape; [6]): 0
- Plant response rating, Rape (rape; [7]): 0
- Plant response rating, Velvetleaf (velvetleaf; [2]): 0
- Velvetleaf plant response rating (velvetleaf; [3]): 0
- Plant response rating, Velvetleaf (velvetleaf; [4]): 0
- Velvetleaf plant response rating (velvetleaf; [5]): 0
- Velvetleaf plant response rating (velvetleaf; [6]): 0
- Plant response rating, Velvetleaf (velvetleaf; [7]): 0
- Plant response rating, Wheat (wheat; [2]): 0
- Wheat plant response rating (wheat; [3]): 0
- Plant response rating, Wheat (wheat; [4]): 0
- Wheat plant response rating (wheat; [5]): 0
- Wheat plant response rating (wheat; [6]): 0
- Plant response rating, Wheat (wheat; [7]): 0
- Plant response rating, Rice (0 to 10 scale, 0 is no effect, 10 is complete control) (rice; [8]): 0
- Rice plant response rating (0 to 10 scale, 0 is no effect, 10 is complete control) (rice; [9]): 0
- Rice plant response rating (rice; [10]): 0
- Rice plant response rating (rice; [11]): 0
- Crabgrass plant response rating (crabgrass; [1]): 0
- Plant response rating, Crabgrass (crabgrass; [2]): 0
- Crabgrass plant response rating (crabgrass; [3]): 0
- Plant response rating, Crabgrass (crabgrass; [4]): 0
- Crabgrass plant response rating (crabgrass; [5]): 0
- Crabgrass plant response rating (crabgrass; [6]): 0
- Plant response rating, Crabgrass (crabgrass; [7]): 0
- Plant response rating, Wild oats (wild oat; [2]): 0
- Wild oats plant response rating (wild oat; [3]): 0
- Plant response rating, Wild oats (wild oat; [4]): 0
- Wild oats plant response rating (wild oat; [5]): 0
- Wild oats plant response rating (wild oat; [6]): 0
- Plant response rating, Wild oats (wild oat; [7]): 0
